Series [1] in a line: Suspension of form A and form B in water, solid analysed by PXRD (phase stability). It counts as physicochemical. The procedure:
(§1) Laboratory PXRD patterns were recorded with a PANalytical X'Pert Pro X-ray diffractometer using Cu Kα radiation in reflection geometry (Bragg-Brentano). The sample is placed in a silicon single crystal sample holder of 0.2 mm depth and gently and precisely flattened. The tube voltage is 45 kV and current is 40 mA. The PXRD data are collected at room temperature in the range from 2θ=3.0°-40.0° with increments of 0.017° and measurement time of 20 to 200 s/step.
In a glass tube equipped with a stirring bar 50 mg of form A and 50 mg of form B were suspended in 1 mL water and stirred for 5 days at room temperature. The resulting solid was removed from the mother liquor and analyzed by PXRD.

Series [2] in a line: Milling of crystalline form B, analysed by PXRD (stability during grinding). The note with it: 100 mg milled for 5 minutes with mortar and pestle. It counts as physicochemical. As for the experimental part: as §1
100 mg of crystalline form B obtained by the protocol of example 1 was milled for 5 minutes using mortar and pestel. The crystalline mass was analyzed by powder X-ray diffractometry.

For the molecule `CCN(C(=O)c1cnn(C(C)C(C)C)c1C)c1ccnnc1` (stereo not drawn) [form A, 1-(1,2-dimethylpropyl)-N-ethyl-5-methyl-N-pyridazin-4-yl-pyrazole-4-carboxamide], the “Crystal form of the solid after stirring in water (PXRD)” value in series [1] (50 mg form A and 50 mg form B suspended in 1 mL water, stirred 5 days at room temperature) was “complied with the data of crystalline form B”.

For `CCN(C(=O)c1cnn(C(C)C(C)C)c1C)c1ccnnc1` (stereo not drawn) [form B, 1-(1,2-dimethylpropyl)-N-ethyl-5-methyl-N-pyridazin-4-yl-pyrazole-4-carboxamide], the “Crystal form after milling (PXRD)” value in series [2] was “form B was identified”. Moreover, the “Thermodynamic stability relative to crystalline form A” value in series [1] (at least at room temperature) was “thermodynamically more stable than the crystalline form A”.

The values are drawn from patent publication US12435065B2, “Crystalline forms of 1-(1,2-dimethylpropyl)-N-ethyl-5-methyl-N-pyridazin-4-yl-pyrazole-4-carboxamide” (BASF SE, priority 2019, dated 2025).
